Measurements as given in article PMC10254235, “Design, Synthesis, and Anti-Cervical Cancer and Reversal of Tumor Multidrug Resistance Activity of Novel Nitrogen-Containing Heterocyclic Chalcone Derivatives” (Molecules, 2023).

Experiments:
[1] = test system: HUVEC cells; assay: In vitro HUVEC inhibitory assay (MTT); format: cell-based; conditions: Homo sapiens, 48 h, ± SD
Procedure: HeLa and SiHa cell lines were obtained from the Procell Life Science Technology Co., Ltd. (Wuhan, China); H8 cell line was obtained from the Shanghai HonSun Biological Technology Co., Ltd. (Shanghai, China); HUVEC cell line was obtained from the Saibaikang (Shanghai) Biotechnology Co., Ltd. (Shanghai, China); HeLa/DDP cell line was obtained from the Guangzhou Jenniobio Biotechnology Co., Ltd. (Guangzhou, China). HeLa, SiHa, H8, and HeLa/DDP cells were cultured in DMEM medium (HyClone). The VEGF of 50 ng/mL was used as the promoter of the VEGFR-2 receptor on HUVEC cell membrane surfaces, and their inhibitory effects on VEGFR-2 were determined. All the mediums were supplemented with 10% FBS (HyClone, GE Healthcare, Australia). Cells were maintained at subconfluency at 37 °C in humidified air containing 5% CO2. The cells were monitored daily and maintained at 80% cell density. All compounds tested were dissolved in DMSO and then diluted by the culture medium before the treatment of cultured cells. Identification reports are available for all types of cell lines involved in this study.
The cytotoxicity of the target compounds were measured in vitro using the MTT assay. Cells grown in the logarithmic phase were counted and seeded in 96-well cell culture plates (5 × 10^3 cells per well) for 24 h to allow attachment of cells to the wall of the plate. […] Next, 20 μL of 5 mg.mL^−1 MTT solution was added to each well and cultured for 4 h. The old solution was discarded, replaced with 150 μL DMSO solution per well, and shaken for 10 min. The OD value was measured under 490 nm, and the inhibition rate was calculated. The nonlinear regression fitting of the cell growth rate was carried out using SPSS 23.0 software, and the IC50 of the compound was calculated. […] There were 6 compound holes in each group, and the experimental results were presented as the average of 3 experiments. A complete medium containing only cells was used as the blank control, whereas a complete medium without cells was the negative control group. Cisplatin and sorafenib were utilized as the positive control group, and the target compound was the experimental intervention group.
After incubation for 24 h, the cell was collected using centrifugation and washed twice using PBS chilled to 0 °C. Then, the cells were homogenized in RIPA lysis buffer and 1% PMSF, 1% mixed phosphatase inhibitor (Solarbio, Beijing, China). The lysates were incubated on ice for 30 min, intermittently vortexed every 5 min, and centrifuged at 12,000 rpm for 20 min to harvest the supernatants.

[2] = test system: HeLa/DDP cells; assay: MTT assay, cisplatin-resistant HeLa/DDP cells; format: cell-based, human
Procedure: The cytotoxicity of the target compounds were measured in vitro using the MTT assay. Cells grown in the logarithmic phase were counted and seeded in 96-well cell culture plates (5 × 10^3 cells per well) for 24 h to allow attachment of cells to the wall of the plate. […] Next, 20 μL of 5 mg.mL^−1 MTT solution was added to each well and cultured for 4 h. The old solution was discarded, replaced with 150 μL DMSO solution per well, and shaken for 10 min. The OD value was measured under 490 nm, and the inhibition rate was calculated. The nonlinear regression fitting of the cell growth rate was carried out using SPSS 23.0 software, and the IC50 of the compound was calculated. […] A complete medium containing only cells was used as the blank control, whereas a complete medium without cells was the negative control group.
To reduce the adverse reactions caused by the fixation of drug resistance reversal agents, the concentration that reduces the proliferation rate of tumor cells by less than 10% was selected.

[3] = test system: HeLa cells; assay: Apoptosis analysis, Annexin V-FITC/PI flow cytometry; format: cell-based, human; conditions: 24 h
Procedure: (§1) After incubation, cells were harvested and incubated using […] of Annexin-V/FITC (BD, America) in binding buffer (10 mM HEPES, 140 mM NaCl, and 2.5 mM CaCl2 at pH 7.4) at room temperature for 15 min. The PI solution was then added to the medium for another 10 min incubation. Almost 10,000 events were collected for each sample and analyzed using flow cytometry (BD, LSRFortessa, New York, NY, USA). The procedure for the remaining Western blot was the same as in Section 3.3.3.

[4] = test system: HeLa cells; assay: Transwell migration assay; format: cell-based, human; conditions: 24 h, control 1205
Procedure: Initially, HeLa (5 × 10^4 cells) were suspended in 200 μL of an FBS-free medium. […] The lower chamber was filled with 600 μL of medium containing 10% FBS. After incubating at 37 °C for 24 h, the cells on the top side of the transwell membrane were removed with a cotton tip. The cells trapped on the bottom side of the membrane were fixed using methanol and stained using 0.1% crystal violet solution for 30 min, respectively.

[5] = test system: Bax; assay: Western blot, Bax in HeLa cells; format: cell-based, human; conditions: HeLa, 2, 4 and 6 μM, 24 h, versus control, p < 0.05
Procedure: (§2) Next, the protein concentrations were determined using a BCA Protein Assay Kit (Solarbio, China). An equal amount of the proteins (12 μg) were separated using 8–12% sodium dodecyl sulfate–polyacrylamide gel electrophoresis (SDS-PAGE) and transferred to nitrocellulose membranes (Amersham Biosciences, Little Chalfont, Buckinghamshire, UK). Then, the membranes were blocked with 5% nonfat dried milk in TBS containing 1% Tween-20 for 2 h at room temperature and were incubated overnight with specific primary antibodies (CST, Boston, MA, USA) at 4 °C. After three washes in TBST, the membranes were incubated with the appropriate HRP-conjugated secondary antibodies at room temperature for 2 h. The blots were developed using enhanced chemiluminescence (Biosharp, Shanghai, China) and were detected using a PE 0723 imager (ProteinSimple, Silicon Valley, CA, USA). Each experiment was performed at least in triplicate and analyzed using Image J software (V1.8.0.112). […]
as §1, with “The PI solution was then added to the medium for another 10 min incubation.” left out, “The procedure for the remaining Western blot was the same as in Section 3.3.3.” left out

[6] = test system: Bcl-2; assay: Western blot, Bcl-2 in HeLa cells; format: cell-based, human; conditions: HeLa, 2, 4 and 6 μM, 24 h, versus control, p < 0.05
Procedure: as §2
as §1, with “The PI solution was then added to the medium for another 10 min incubation.” left out, “The procedure for the remaining Western blot was the same as in Section 3.3.3.” left out

`COc1cc(O)c(C(=O)/C=C/c2ccc(CN3CCC(C)CC3)cc2)cc1CN1CCC(O)CC1` [6f, (E)-1-(2-hydroxy-5-((4-hydroxypiperidin-1-yl)methyl)-4-methoxyphenyl)-3-(4-((4-methylpiperidin-1-yl)methyl)phenyl)prop-2-en-1-one] was tested, and the IC50 [1] was 7.14 ± 0.91 µM, the “inhibitory rate on HeLa/DDP cell line” value ([2]; 6f alone at 0.25, 0.5 and 1 μM) was “less than 10%” and the “RI (resistance index)” value ([2]; HeLa/DDP versus HeLa, single agent) was 1.19. It also gave an IC50 ([2]; Homo sapiens, cisplatin-resistant HeLa/DDP cells, single agent, 48 h, read-out: 48h IC50 HeLa/DDP) of 7.74 ± 0.36 µM, a proapoptotic rate ([3]; 2 μM) of 13.4% and a proapoptotic rate ([3]; 4 μM) of 20.7%. The proapoptotic rate ([3]; 6 μM) was 34.6%, the “number of migrating cells” value ([4]; 2 μM) was 372 and the “number of migrating cells” value ([4]; 4 μM) was 132. For the same compound, the “number of migrating cells” value ([4]; 6 μM) was 71, the “expression of Bax (Western blot)” value [5] was “significantly upregulated the expression of Bax” and the “expression of Bcl-2 (Western blot)” value [6] was “significantly downregulating the expression of Bcl-2”.
